Structures can show the parent of a compound that is named as a salt.

This is an account of results in US6420570B1, “Psoralen compounds” (priority 1993, dated 2002).

One data set has as its system R17. Briefly: R17 bacteriophage inactivation screen, varying compound concentration. The data set is classed as cell-based. The procedure:
The assay used to predict pathogen inactivation efficiency and to determine nucleic acid binding of the photoreactive binding compounds of the present invention was that in which a bacteriophage, R17, in solution with the desired substrate was irradiated. The ability of the phage to subsequently infect bacteria and inhibit their growth was measured. The bacteriophage was selected for its relatively accessible nucleic acid such that the culture growth inhibition would accurately reflect nucleic acid damage by the test compounds. The bacteriophage assay for nucleic acid binding to test compounds offers a safe and inexpensive procedure to identify compounds likely to display efficient pathogen inactivation. […] An aliquot (0.5 mL) was transferred to a 1.5 mL, snap-top polyethylene tube. An aliquot (0.004-0.040 mL) of the test compound stock solution prepared in water, ethanol or dimethylsulfoxide at 0.80-8.0 mM was added to the tube. Compounds were tested at concentrations between 4 μM and 320 μM. (AMT is commercially available from HRI, Inc., Concord, Calif.; 8-MOP is commercially available from Sigma, St. Louis, Mo.). The tubes were placed in a light device as described in EXAMPLE 1 and irradiated for between 1 and 10 minutes. […] To make the dilutions, a 0.100 mL aliquot of the irradiated solution of phage and test compound was added to the first dilution tube of 0.4 mL of media then 0.020 mL of this solution was added to the second tube of 0.5 mL medium (1:25). The second solution was then diluted serially (1:25) into the remaining tubes. […] After the top agar hardened, the plates were incubated at 37° C. overnight. The plaque forming units were then counted the following morning and the titer of the phage remaining after phototreatment was calculated based on the dilution factors. The following controls were run: the “phage only” in which phage was not treated with test compound and not irradiated (listed as “starting titer” in the tables below); the “UV only” in which the phage was irradiated in the absence of test compound; and the “dark” control in which the phage/test compound solution was not irradiated before it was diluted and plated.

A further data set concerns cell-free virus (HIV). The data set is classed as cell-based. The following applies: for HIV Log Kill 32 μM / HIV Log Kill 64 μM: Table 8, 1 minute irradiation, HIV starting titer approximately 5 logs.
Data set [1] concerns Salmonella tester strains. Briefly: Ames assay, dark mutagenicity, overall over tester strains. The following applies: two-fold or greater increase in revertants above background and dose dependent response. As to the method: (§1) In this example the compounds of the present invention are tested for their dark mutagenicity using an Ames assay. The procedures used for the Salmonella mutagenicity test as described in detail by Maron and Ames were followed exactly. Maron, D. M. and B. N. Ames, Mutation Research 113:173 (1983). A brief description for each procedure is given here. The tester strains TA97a, TA98, TA100, TA102, TA1537 and TA1538 were obtained from Dr. Ames. TA97a, TA98, TA1537 and TA1538 are frameshift tester strains. TA100 and TA102 are base-substitution tester strains. Upon receipt each strain was cultured under a variety of conditions to confirm the genotypes specific to the strains.
(§2) The first tests done with the strains were to determine the range of spontaneous reversion for each of the strains. With each mutagenicity experiment the spontaneous reversion of the tester strains to histidine independence was measured and expressed as the number of spontaneous revertants per plate. This served as the background controls.
For all experiments, the pre-incubation procedure was used. In this procedure one vial of each tester strain was thawed and 20 μL of this culture was added to 6 mL of Oxoid Nutrient Broth #2. This solution was allowed to shake for 10 hours at 37° C. In the pre-incubation procedure, 0.1 mL of this overnight culture was added to each of the required number of sterile test tubes. To half of the tubes 0.5 mL of a 10% S-9 solution containing Aroclor 1254 induced rat liver extract (Molecular Toxicology Inc., Annapolis, MD), and MgCl2, KCl, glucose-6-phosphate, NADP, and sodium phosphate buffer (Sigma, St. Louis. Mo.) were added. To the other half of the tubes 0.5 mL of 0.2M sodium phospate buffer, pH 7.4, was used in place of the S-9 mixture (the -S9 samples) Finally 0.1 mL of the test solution containing either 0.0.1, 0.5, 1, 5, 10, 50, 100, 250, or 500 μg/mL of the test compound was added. The 0.7 mL mixture pre-incubated while shaking for 20 minutes at 37° C. After shaking, 2 mL of molten top agar supplemented with histidine and biotin were added to the 0.7 mL mixture and immediately poured onto a minimal glucose agar plate (volume of base agar was 20 ml.). The top agar was allowed 30 minutes to solidify and then the plates were inverted and incubated for 44 hours at 37° C. After incubation the number of revertant colonies on each plate were counted. […] (“n” represents the number of replicates performed for each data point.)
Maron and Ames (1983) describe the conflicting views with regard to the statistical treatment of data generated from the test.
For orientation: The Ames test detects mutagens through reverse mutation in bacteria.

The subject of a further data set is TA102. Briefly: Ames assay, dark mutagenicity, strain TA102. As to the method:
as §1, §2
For all experiments, the pre-incubation procedure was used. In this procedure one vial of each tester strain was thawed and 20 μL of this culture was added to 6 mL of Oxoid Nutrient Broth #2. This solution was allowed to shake for 10 hours at 37° C. […] After incubation the number of revertant colonies on each plate were counted. […]

For data set [2], the system named is Duck Hepatitis B Virus (DHBV). Briefly: Inactivation of Duck Hepatitis B Virus in platelet concentrate, PCR amplification read-out. The following applies: 5 J/CM^2 UVA. The procedure: This example describes the protocol for inactivation of another virus, Duck Hepatitis B Virus (DHBV), using compounds of the present invention. DHBV in duck yolk was added to platelet concentrate (PC) to a final concentration of 2×10^7 particles per mL and mixed by gentle rocking for ≧15 min. […] Samples, including controls without added psoralen, were irradiated with 5 J/CM^2 UVA, with mixing at 1 J/cm^2 increments. After irradiation, leukocytes and platelets were separated from virus by centrifugation. […] Samples were extracted with phenolchloroform and chloroform, followed by ethanol precipitation. […] PCR amplicons were generated using primers pairs DCD03/DCD05 (127 bp), DCD03/DCD06 (327 bp) and DCD03/DCD07 (1072 bp). PCR was performed in a standard PCR buffer containing 0.2 mM each deoxyribonucleoside 5′-triphosphates (dATP, dGTP, dCTP, and dTTP), 0.5 […], and 0.5 units Taq polymerase per […]. 30 cycles of amplification were performed with the following thermal profile: 95° C. 30 sec, 60° C. 30 sec, 72° C. 1 min. The amplification was followed by a 7 min incubation at 72° C. to yield full length products. [[…]-^32P] dCTP was added at an amount of […] in order to detect and quantify the resulting products. Products were separated by electrophoresis on denaturing polyacrylamide slab gels and counted. The absence of signal in a given reaction was taken to indicate effective inactivation of DHBV.

The mark [3] stands for this setting: Table 6, 16 uM, 1 minute irradiation = 1.2 J/cm^2, starting titer approx. 7.1 logs.

The term melting point denotes the temperature, or range, at which the solid turns liquid. As for `Cc1oc2c(C)c3oc(=O)cc(C)c3cc2c1CNCCN` (as salt: hydrochloride) [Compound 1, 4′-(4-amino-2-aza)butyl-4,5′,8-trimethylpsoralen dihydrochloride], the melting point is 320 to 322 °C (dec.).

Regarding `Cc1oc2c(C)c3oc(=O)cc(C)c3cc2c1CNCCCN` (as salt: hydrochloride) [Compound 5, 4′-(5-amino-2-aza)pentyl-4,5′,8-trimethylpsoralen dihydrochloride], the melting point is 288 °C (dec.).

Consider `Cc1oc2c(C)c3oc(=O)cc(C)c3cc2c1CCN` [Compound 3, 4′-(2-aminoethyl)-4,5′,8-trimethylpsoralen Hydrochloride], for which the “R17 Log Kill 8 uM” value with R17 (Table 5, 8 uM, 1 minute irradiation, starting titer approx. 7.2 logs) is reported as greater than 6.2 log. Also, the “R17 Log Kill 16 uM” value with R17 (Table 5, 16 uM, 1 minute irradiation, starting titer approx. 7.2 logs) was greater than 6.2 log. Also, the “R17 Log Kill 32 uM” value in the data set with R17 (Table 5, 32 uM, 1 minute irradiation, starting titer approx. 7.2 logs) is greater than 6.2 log. Also, the “R17 log kill 8 uM” value in the data set with R17 (Table 6, 8 uM, 1 minute irradiation = 1.2 J/cm^2, starting titer approx. 7.1 logs) was 5.6 log. In addition, in the data set on R17 (setting [3]), the “R17 log kill 16 uM” value is greater than 6.1 log. Besides, in the data set with cell-free virus (HIV), the “HIV Log Kill 32 μM” value is listed as 2.7 log and the “HIV Log Kill 64 μM” value is listed as greater than 3.8 log. For the same compound, the “HIV inactivation activity compared with AMT” value in the data set on cell-free virus (HIV) (concentrations of 64 μM of compound or higher) is “significantly more active than AMT”. For the same compound, the “mutagenicity as defined by the Ames test” value in data set [1] was “no mutagenicity”.

Consider `Cc1oc2c(C)c3oc(=O)cc(C)c3cc2c1COCCCN` [Compound 4, 4′-(5-amino-2-oxa)pentyl-4,5′,8-trimethylpsoralen], for which the “R17 log kill 16 uM” value with R17 (setting [3]) is on record as 2.3 log. In addition, in the data set with R17 (Table 6, 32 uM, 1 minute irradiation = 1.2 J/cm^2, starting titer approx. 7.1 logs), the “R17 log kill 32 uM” value is recorded as 4.3 log. For the same compound, the “R17 log kill 64 uM” value with R17 (Table 6, 64 uM, 1 minute irradiation = 1.2 J/cm^2, starting titer approx. 7.1 logs) is given as greater than 6.1 log. Moreover, in the data set on cell-free virus (HIV), the “HIV Log Kill 32 μM” value was 2.2 log and the “HIV Log Kill 64 μM” value was greater than 3.6 log. Moreover, the “mutagenicity as defined by the Ames test” value in data set [1] is recorded as “no mutagenicity”.

For the compound `COc1c2occc2cc2ccc(=O)oc12` [Compound 8-MOP, 8-Methoxypsoralen], the “dose at which the only mutagenic response (weak base-substitution mutagen) was detected” value with TA102 (TA102) came out at 500 μg/plate.

For `Cc1oc2c(C)c3oc(=O)cc(C)c3cc2c1COCCN` [Compound S-59], in data set [2] (127 bp and 327 bp amplicons, same concentrations), the “PCR of the smaller amplicons compared with AMT” value is given as “inhibited PCR of the smaller amplicons better than did AMT”. In addition, in data set [2] (all concentrations (35, 70, and 100 mM), platelet concentrate), the “PCR of the 1072 bp amplicon” value is “complete inhibition of PCR”.

As to `OO` [hydrogen peroxide], the “revertant colonies per plate, positive control” value in the data set on TA102 (Salmonella typhimurium, 44 h, 100 μg/plt, pH 7.4) is recorded as 660.
